Results taken from patent US20260258397A1, “REAGENTS AND SYSTEMS FOR […]” (priority 2023, published 2026).
Where “and” joins values, the source holds several entries; their conditions need not be identical. Identical values can stand only once. Like-named read-outs stand apart in the source and are kept apart here.

Columns and labels:
[1] = Apparent Tm of HAB1 variants by thermal challenge and yeast surface display of PYR1^M; format: physicochemical; details: YSD of PYR1^M, 500 nM ABA, 20 nM HAB1 variant
Description: (§1) Except where noted, all proteins were expressed as N-terminal 6×His-MBP fusions primarily using the medium and method as described in ref. 17. For crystallographic structures, PYL2 and ΔN-HAB1^T+ were expressed in E. coli and purified as described previously 27. Assays for phosphatase activity and apparent Tm, measured via thermal challenge using yeast surface display were performed essentially as previously described 17.
Citrate-buffered saline was first prepared (CBS: 20 mM sodium citrate, 147 mM NaCl, 4.5 mM KCl). A portion of this CBS was removed and this aliquot was made into CBS^+++ by addition of freshly dissolved DTT to 1 mM, TCEP pH 8.0 to 1 mM, and MnCl2 to 10 mM followed by pH adjustment to 8.0 using 1 M sodium hydroxide. CBS^+++ was then sterile filtered and placed on ice. A further portion of CBS was removed and the above reagents were added in addition to bovine serum albumin at 0.2% w/v to produce CBSFF^+++, followed by adjustment of pH to 8.0 with 1 M sodium hydroxide and the solution was again sterile filtered and placed on ice. The remainder (and bulk) of the CBS was used to produce CBSF by addition of 0.1% w/v BSA with adjustment of pH to 8.0 using 1 M sodium hydroxide, and this solution was also sterile filtered, and 25 mL were retained at room temperature, with the bulk of the solution transferred to ice.
Determination of apparent Tm was performed using thermal melt. 130 AL of the ice-cold ammonium sulfate precipitates of HAB variants MBP-636 (“WT”), ΔN-HAB1^T+, MBP-724, MBP-725, and MBP-726 were pelleted in a microcentrifuge for 5 minutes at 17,000 g.
The supernatant was removed by pipette, discarded, and the pellet resuspended in an equivalent volume of ice-cold CBS^+++. Zeba™ spin desalting columns (Thermo) were equilibrated with CBS^+++ and the resuspended HABs were desalted and placed on ice. Each HAB was diluted to 400 nM concentration in CBS^+++ and aliquoted into PCR tubes at a 50 μL volume. These tubes were distributed into the blocks of a pair of Eppendorf Mastercycler X50i thermocyclers programmed for a thermal gradient as follows (in ° C.): (Machine #1 Gradient 30.0 to 60.0-30.0, 35.4, 39.3, 46.8, 50.6, 54.5, 60.0, Machine #2 Gradient 65.0 to 95.0-65.0, 70.4). The HAB aliquots were held at these temperatures for 30 minutes, followed by cooling to 4° C. in the thermocycler blocks. Once the aliquots had cooled, they were transferred to racks on ice and SO AL of CBSFF^+++ was added, such that each HAB was now at a concentration of 200 nM (10X) in CBSF^+++. The heat treated HAB aliquots were left on ice until the remainder of the labeling reactions were set up, about 1 hour. Labeling reactions were performed, measured, and analyzed as described previously (Steiner et al. 2020).

[2] = Phosphatase activity of 6xHis-MBP-ΔN-HAB1 variants using p-NPP; format: biochemical; details: error 1 SEM
Text: FIG. 8: Assessment of stabilized, inactivated 6×His-MBP-ΔN-HAB1 variants. Experiments were repeated on two separate days using independently generated batches of protein. Error bars indicate 1 SD of 3 measurements. Sets of mutations for each variant are noted in Table 7. […] Fluorescence here refers to streptavidin-phycoerythrin.
as §1

[3] = target: T1, PYR1^M/ΔN-HAB1^T+ (Arabidopsis thaliana, UniProt O49686, H60P/N90S); experiment: PYR1 ELISA-like plate assay, immobilized PYR1^M with biotinylated ΔN-HAB1^T+; format: binding; details: for Amax [AU 450 nm]: global parameter
T1 construct: made in house; host or cells: E. coli
Description: PYR1 was immobilized overnight in clear plates, blocked with KPL milk diluent in buffer CBS ^17 (CBSM). All binding reactions were performed using CBSM. Detection was performed via binding a streptavidin-HRP conjugate to biotinylated ΔN-HAB1^T+ followed by incubation with a commercial TMB reagent. Lower limits of detection (LODs) were determined by linear regression of the response data in the low linear range using the formula LOD=3σy/m, where m is the slope of the response line and σy is the standard error of the y intercept using data combined from biological replicates.
Unconjugated 6×His-MBP-PYR1 variants were immobilized to Microlon clear plates (655081) using 100 μL of CBS without pH modification, at a protein concentration of 100 μg mL^−1, or 1.57 AM at 4° C. overnight. Wells assigned as no PYR controls received only CBS. Plates were sealed using Microseal B adhesive sealers (BioRad MSB-1001). The following day, the solutions were decanted by flicking and all wells were washed twice with 300 μL of CBS. Blocking was performed using 300 μL of KPL milk diluent/concentrate (SeraCare 5140-0011) diluted 1:20 according to manufacturer's protocol, hereafter referred to as CBSM, incubated at room temperature for 2 hours, during which time all other components of the assays were diluted and assembled in 96 well PCR plates (Biorad HSP9601). Binding reactions were assembled from 88 μL of CBSM, 2 AL of 50× concentrate of ligand, dissolved in anhydrous ethanol for ABA, or anhydrous DMSO for all other compounds, with 10 μL of HAB to be added. Blocked plates were decanted by flicking and were washed twice with 300 μL of CBSM, followed by vigorous tamping on a pad of paper towels. The sole exception to the pre-assembly was biotinylated ΔN-HAB1^T+, where 130 AL of ammonium sulfate precipitate was pelleted at 17,000 g for 10 minutes, and the supernatant removed. The pellet was stored on ice until the blocked and washed plates were ready to receive the binding reactions. ΔN-HAB1^T+ was exchanged into CBSM with 1 mM DTT and 1 mM TCEP (CBSM++) using Zeba™ spin desalting columns (Thermo) were equilibrated with CBSM++. ΔN-HAB1^T+ was diluted to 10× the final binding reaction concentration and was immediately added to the pre-assembled assays in PCR plates, which were mixed by pipetting and transferred to the washed, blocked Microlon plates. Microlon plates were transferred to a plate shaker (Heidolph Titramax 1000) for 30 minutes at room temperature with shaking at 800 rpm. Plates were decanted by flicking and were washed three times with 300 μL of CBSM, followed by vigorous tamping on a pad of paper towels. Detection was enabled by addition of 100 μL of streptavidin-horseradish peroxidase (Thermo, SA10001), diluted 1:25,000 into CBSM, incubated in the above plate shaker for 10 minutes. This was decanted by flicking and washed three times with 300 AL of CBSM and by vigorous tamping on a pad of paper towels. Bound HAB was detected through addition of 50 μL 1-Step™ Ultra TMB-ELISA Substrate Solution (Thermo, 34028), incubated in the above plate shaker for 15 minutes (PYR1^M(N90S/H60P) with ABA, PYR1 ^WIN-M and PYR1^4F-M. in specificity assays to avoid overdevelopment of positive control), or for 30 minutes (PYR1^N90S/MANDI with mandipropamid, and PYR1^WIN-M and PYR1^4F-M under ligand titrations). TMB development was quenched by addition of 50 μL of 2M sulfuric acid and plates were read at 450 nm using a Biotek Synergy H1 Hybrid multimode plate reader. Estimates of Kd,eff were performed using Graphpad Prism 8.4.3 using the specific binding with Hill slope nonlinear regression function. Best fits for Kd1 and Kd2 were determined from global nonlinear fitting of the ELISA data using a custom script written in MatLab 2019b.

[4] = tested on: PYR1 mutant receptors (ligand-dependent binding to HAB1); experiment: Yeast two-hybrid screens and optimization for organophosphate sensors; format: cell-based, Arabidopsis
Description: Surviving cells were collected and used in subsequent positive selections for ligand-responsive receptors on SD,-Leu,-Trp,-Ura media supplemented with a specific test chemical (100 μM) for responsiveness to any of the 10-member panel of organophosphate compounds: diazinon, pirimiphos-methyl, azinphos-ethyl, dimethoate, chlorfenvinphos, disulfoton, parathion-methyl, bromophos-methyl, malathion, and monocrotophos; all compounds were purchased form (Sigma-Aldrich). Isolated colonies were tested by regrowth on ligand-containing media and by dose response using X-gal staining and Sanger sequenced (see FIG. 13a-d).
Recombination-based mutagenesis of hit receptors was used to generate subsequent molecular diversity for selection-based optimization experiments, using the same general strategy across all scaffolds utilized. […] The resulting shuffled DNA fragments were cloned into pBD, transformed into E. coli, colonies collected, and plasmids extracted.

T1 sequence (O49686 whole entry H60P/N90S, other chains not shown): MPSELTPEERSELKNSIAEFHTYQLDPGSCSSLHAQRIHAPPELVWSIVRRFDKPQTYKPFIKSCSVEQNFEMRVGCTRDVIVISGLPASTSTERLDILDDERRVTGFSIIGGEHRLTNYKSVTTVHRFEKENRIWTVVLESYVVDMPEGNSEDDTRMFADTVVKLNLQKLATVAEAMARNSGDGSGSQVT

724: stabilized dead 6 × His-MBP-ΔN-HAB1 variant with D243A instead of D204A [compound 724]
Tm, app (° C.) ([1]; Biorep 1): 54.1 °C | Tm, app (° C.) ([1]; Biorep 2): 44.8 °C | Phosphatase Activity (% of 636 at 50 mM p-NPP) ([2]; Biorep 1): 0.22 ± 0.005% | Phosphatase Activity (% of 636 at 50 mM p-NPP) ([2]; Biorep 2): 0.01 ± 0.001%

725: 6 × His-MBP-ΔN-HAB1 (C186S, D199A, D204A, S209V, D287E, S292N, S342A, N377A, N439S) [compound 725]
Tm, app (° C.) ([1]; Biorep 1): 50.7 °C | Tm, app (° C.) ([1]; Biorep 2): 45.5 °C | Phosphatase Activity (% of 636 at 50 mM p-NPP) ([2]; Biorep 1): 0.25 ± 0.01% | Phosphatase Activity (% of 636 at 50 mM p-NPP) ([2]; Biorep 2): 0.003 ± 0.004%

CC1=CC(=O)CC(C)(C)[C@@]1(O)/C=C/C(C)=C\C(=O)O [ABA, abscisic acid]
Kd ([3]; global nonlinear fit, PYR1^M/ABA/ΔN-HAB1^T+ system, Biorep 1, read-out: KD1): 820 nM | Kd ([3]; global nonlinear fit, PYR1^M/ABA/ΔN-HAB1^T+ system, Biorep 2, read-out: KD1): 780 nM | Kd ([3]; global nonlinear fit, PYR1^M/ABA/ΔN-HAB1^T+ system, Biorep 3, read-out: KD1): 2090 nM | Kd ([3]; global nonlinear fit, KD2 = binding constant of HAB1 variant (ΔN-HAB1^T+) for PYR1^M with ABA, Biorep 1, read-out: KD2): 8 nM | Kd ([3]; global nonlinear fit, KD2 = binding constant of HAB1 variant (ΔN-HAB1^T+) for PYR1^M with ABA, Biorep 2, read-out: KD2): 4 nM | Kd ([3]; global nonlinear fit, KD2 = binding constant of HAB1 variant (ΔN-HAB1^T+) for PYR1^M with ABA, Biorep 3, read-out: KD2): 2 nM | Amax [AU 450 nm] ([3]; PYR1^M/ABA/ΔN-HAB1^T+ system, Biorep 1): 2 AU 450 nm | Amax [AU 450 nm] ([3]; PYR1^M/ABA/ΔN-HAB1^T+ system, Biorep 2): 2.8 AU 450 nm | Amax [AU 450 nm] ([3]; PYR1^M/ABA/ΔN-HAB1^T+ system, Biorep 3): 2 AU 450 nm | lower limit of detection (LOD) ([3]; optimized ELISA-like system, PYR1^M): 2 nM and 0.7 ng/mL | Kd ([3]; optimized ELISA-like system, PYR1^M, read-out: effective Kd): 9.7 nM

CCOP(=O)(OCC)O/C(=C\Cl)c1ccc(Cl)cc1Cl [chlorfenvinphos]
affinity of receptors obtained, but not lower ([4]; after optimization): 10 µM

CNC(=O)CSP(=S)(OC)OC [dimethoate]
affinity of receptors obtained, but not lower [4]: 10 µM

WT (636): 6 × His-MBP-ΔN-HAB1 (C186S, C274S)
Tm, app (° C.) ([1]; Biorep 1): 44.8 °C | Tm, app (° C.) ([1]; Biorep 2): 38.1 °C | Phosphatase Activity (% of 636 at 50 mM p-NPP) ([2]; Biorep 1): 100 ± 0.4% | Phosphatase Activity (% of 636 at 50 mM p-NPP) ([2]; Biorep 2): 100 ± 0.8%
